Measured values taken from patent US11793849B2, “Method of Chinese herbal medicine extract used for treating multiple diseases caused by drug resistant bacteria infection” (priority 2016, dated 2023).

Test system: MDRPA
Assay: Checkerboard assay (combined-use MIC, FIC)
Format: cell-based, Pseudomonas aeruginosa
Conditions: for FIC, all strains / MIC50 of the antibiotic after combined use / MIC90 of the antibiotic after combined use / reduction of the antibiotic's MIC50 vs single use / reduction of the antibiotic's MIC90 vs single use / share of strains with FIC ≤ 0.5: 20 MDRPAs
Description: Test methods of the sensibilization effects of the test product to similar antibiotics: it is operated by referring to a checkerboard assay recommended by NCCLS.
The checkerboard assay is performed in a 96-pore sterile culture plate.
Calculation of a Fractional Inhibitory Concentration (FIC): FIC=S20b combined-use MIC/S20b single-use MIC+antibiotic combined-use MIC/antibiotic single-use MIC. By calculating the FIC, the combined antibacterial interaction between the EA and the antibiotic is evaluated, with synergistic effect for FIC≤0.5, additive effect for 0.5<FIC≤1, indifferent effect for 1<FIC≤2 and antagonistic effect for FIC>2. According to a sterile growth pore, the optimum concentration ratio between the EA and the antibiotic is founded out. At last, the effect of the EA to strengthen the efficacy of the antibiotic is evaluated.

[1] = antibiotic with 10% ethanol extract
[2] = antibiotic with 60% ethanol extract
[3] = antibiotic with 95% ethanol extract
[4] = antibiotic with EA (water extract)

CC(C)(O/N=C(\C(=O)N[C@@H]1C(=O)N2C(C(=O)[O-])=C(C[n+]3ccccc3)CS[C@H]12)c1csc(N)n1)C(=O)O [CAZ, Ceftazidime]
16 µg/mL: MIC50 of the antibiotic after combined use [1] | MIC50 of the antibiotic after combined use [3] | combined-use MIC (strain P1, EA (P. clypearia 10% ethanol extract) combined with CAZ) | combined-use MIC (strain P2, EA (P. clypearia 10% ethanol extract) combined with CAZ) | combined-use MIC (strain P2, EA (P. clypearia water extract) combined with CAZ) | combined-use MIC (strain P18, EA (P. clypearia water extract) combined with CAZ)
45%: share of strains with FIC ≤ 0.5 [4]
4 µg/mL: combined-use MIC (strain P9, EA (P. clypearia 10% ethanol extract) combined with CAZ) | combined-use MIC (strain P9, EA (P. clypearia water extract) combined with CAZ) | combined-use MIC (strain P13, EA (P. clypearia 10% ethanol extract) combined with CAZ) | combined-use MIC (strain P13, EA (P. clypearia water extract) combined with CAZ)
256 µg/mL: combined-use MIC (strain P6, EA (P. clypearia 10% ethanol extract) combined with CAZ) | combined-use MIC (strain P6, EA (P. clypearia water extract) combined with CAZ)
≤ 2: FIC, all strains [1] | FIC, all strains [2] | FIC, all strains [3] | FIC, all strains [4]
32 µg/mL: combined-use MIC (strain P5, EA (P. clypearia 10% ethanol extract) combined with CAZ) | combined-use MIC (strain P5, EA (P. clypearia water extract) combined with CAZ) | combined-use MIC (strain P7, EA (P. clypearia 10% ethanol extract) combined with CAZ) | combined-use MIC (strain P7, EA (P. clypearia water extract) combined with CAZ) | combined-use MIC (strain P18, EA (P. clypearia 10% ethanol extract) combined with CAZ)
25%: share of strains with FIC ≤ 0.5 [3]
40%: share of strains with FIC ≤ 0.5 [2]
75%: reduction of the antibiotic's MIC90 vs single use [1] | reduction of the antibiotic's MIC50 vs single use [2] | reduction of the antibiotic's MIC90 vs single use [2] | reduction of the antibiotic's MIC50 vs single use [4] | reduction of the antibiotic's MIC90 vs single use [4]
50%: reduction of the antibiotic's MIC50 vs single use [1] | reduction of the antibiotic's MIC50 vs single use [3] | reduction of the antibiotic's MIC90 vs single use [3]
128 µg/mL: MIC90 of the antibiotic after combined use [3] | combined-use MIC (strain P15, EA (P. clypearia 10% ethanol extract) combined with CAZ) | combined-use MIC (strain P15, EA (P. clypearia water extract) combined with CAZ)
64 µg/mL: MIC90 of the antibiotic after combined use [1] | MIC90 of the antibiotic after combined use [2] | MIC90 of the antibiotic after combined use [4] | combined-use MIC (strain P4, EA (P. clypearia 10% ethanol extract) combined with CAZ) | combined-use MIC (strain P4, EA (P. clypearia water extract) combined with CAZ) | combined-use MIC (strain P8, EA (P. clypearia 10% ethanol extract) combined with CAZ) | combined-use MIC (strain P8, EA (P. clypearia water extract) combined with CAZ) | combined-use MIC (strain P20, EA (P. clypearia 10% ethanol extract) combined with CAZ) | combined-use MIC (strain P20, EA (P. clypearia water extract) combined with CAZ)
1 µg/mL: combined-use MIC (strain P11, EA (P. clypearia 10% ethanol extract) combined with CAZ) | combined-use MIC (strain P11, EA (P. clypearia water extract) combined with CAZ)
35%: share of strains with FIC ≤ 0.5 [1]
2 µg/mL: combined-use MIC (strain P3, EA (P. clypearia 10% ethanol extract) combined with CAZ) | combined-use MIC (strain P3, EA (P. clypearia water extract) combined with CAZ) | combined-use MIC (strain P10, EA (P. clypearia 10% ethanol extract) combined with CAZ) | combined-use MIC (strain P10, EA (P. clypearia water extract) combined with CAZ) | combined-use MIC (strain P12, EA (P. clypearia 10% ethanol extract) combined with CAZ) | combined-use MIC (strain P12, EA (P. clypearia water extract) combined with CAZ) | combined-use MIC (strain P19, EA (P. clypearia 10% ethanol extract) combined with CAZ) | combined-use MIC (strain P19, EA (P. clypearia water extract) combined with CAZ)
8 µg/mL: MIC50 of the antibiotic after combined use [2] | MIC50 of the antibiotic after combined use [4] | combined-use MIC (strain P1, EA (P. clypearia water extract) combined with CAZ) | combined-use MIC (strain P14, EA (P. clypearia 10% ethanol extract) combined with CAZ) | combined-use MIC (strain P14, EA (P. clypearia water extract) combined with CAZ) | combined-use MIC (strain P16, EA (P. clypearia 10% ethanol extract) combined with CAZ) | combined-use MIC (strain P16, EA (P. clypearia water extract) combined with CAZ) | combined-use MIC (strain P17, EA (P. clypearia 10% ethanol extract) combined with CAZ) | combined-use MIC (strain P17, EA (P. clypearia water extract) combined with CAZ)

C[C@H]1COc2c(N3CCN(C)CC3)c(F)cc3c(=O)c(C(=O)O)cn1c23 [LVX, Levofloxacin]
2 µg/mL: combined-use MIC (strain P9, EA (P. clypearia water extract) combined with LVX) | combined-use MIC (strain P16, EA (P. clypearia water extract) combined with LVX)
10%: share of strains with FIC ≤ 0.5 [2] | share of strains with FIC ≤ 0.5 [3]
8 µg/mL: MIC90 of the antibiotic after combined use [2] | MIC90 of the antibiotic after combined use [4] | combined-use MIC (strain P18, EA (P. clypearia water extract) combined with LVX)
15%: share of strains with FIC ≤ 0.5 [1] | share of strains with FIC ≤ 0.5 [4]
87.5%: reduction of the antibiotic's MIC90 vs single use [1] | reduction of the antibiotic's MIC90 vs single use [3]
32 µg/mL: combined-use MIC (strain P10, EA (P. clypearia water extract) combined with LVX)
4 µg/mL: MIC90 of the antibiotic after combined use [1] | MIC90 of the antibiotic after combined use [3] | combined-use MIC (strain P1, EA (P. clypearia water extract) combined with LVX) | combined-use MIC (strain P4, EA (P. clypearia water extract) combined with LVX) | combined-use MIC (strain P17, EA (P. clypearia water extract) combined with LVX) | combined-use MIC (strain P19, EA (P. clypearia water extract) combined with LVX)
1 µg/mL: MIC50 of the antibiotic after combined use [1] | MIC50 of the antibiotic after combined use [2] | MIC50 of the antibiotic after combined use [3] | MIC50 of the antibiotic after combined use [4] | combined-use MIC (strain P11, EA (P. clypearia water extract) combined with LVX) | combined-use MIC (strain P13, EA (P. clypearia water extract) combined with LVX) | combined-use MIC (strain P14, EA (P. clypearia water extract) combined with LVX) | combined-use MIC (strain P15, EA (P. clypearia water extract) combined with LVX) | combined-use MIC (strain P20, EA (P. clypearia water extract) combined with LVX)
≤ 2: FIC, all strains [1] | FIC, all strains [3] | FIC, all strains [4]
0.5 µg/mL: combined-use MIC (strain P12, EA (P. clypearia water extract) combined with LVX)
75%: reduction of the antibiotic's MIC50 vs single use [1] | reduction of the antibiotic's MIC50 vs single use [2] | reduction of the antibiotic's MIC90 vs single use [2] | reduction of the antibiotic's MIC50 vs single use [3] | reduction of the antibiotic's MIC50 vs single use [4] | reduction of the antibiotic's MIC90 vs single use [4]
0.03125 µg/mL: combined-use MIC (strain P2, EA (P. clypearia water extract) combined with LVX) | combined-use MIC (strain P3, EA (P. clypearia water extract) combined with LVX) | combined-use MIC (strain P5, EA (P. clypearia water extract) combined with LVX) | combined-use MIC (strain P6, EA (P. clypearia water extract) combined with LVX) | combined-use MIC (strain P7, EA (P. clypearia water extract) combined with LVX) | combined-use MIC (strain P8, EA (P. clypearia water extract) combined with LVX)
